Test systems include 786-0 renal; EKVX NSCLC; SK-MEL-28 melanoma; HCT-15 colon; SK-OV-3 ovarian; K-562 leukemia; COLO 205 colon; HS 578T breast; IGROV1 ovarian; SK-MEL-5 melanoma; HOP-92 NSCLC.
Assay in all cases: NCI tumour cell line growth inhibition, 48 h

Molecules are shown by their SMILES. Several values for one entry are separate records, joined by “and”; a condition that tells them apart may be missing. Identical values can stand only once.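 Values below derive from 48-hour exposures of cells grown in 96-well plates, with endpoints linearly interpolated between the two concentrations bracketing the appropriate inhibition level. GI50 marks 50% less growth. TGI is the concentration that stops growth completely.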 Bounds are passed on as bounds.

Consider `CN1CCN2CCN(C)CCN(CC1)CC2`, for which the TGI in the experiment on 786-0 renal, in the experiment on EKVX NSCLC, in the experiment on SK-MEL-28 melanoma, with HCT-15 colon, in the experiment with SK-OV-3 ovarian and in the experiment on K-562 leukemia was over 100 µM in each case. Further, the TGI with COLO 205 colon, in the experiment with HS 578T breast, with IGROV1 ovarian, in the experiment on SK-MEL-5 melanoma and in the experiment with HOP-92 NSCLC was over 100 µM each time.
As for `CN(C)C=Nc1cccc2c1NSN2`, the TGI in the experiment with 786-0 renal, in the experiment with EKVX NSCLC, with SK-MEL-28 melanoma, in the experiment with HCT-15 colon, with SK-OV-3 ovarian and in the experiment with K-562 leukemia was over 100 µM in each case. The TGI in the experiment with COLO 205 colon, in the experiment with HS 578T breast, in the experiment with IGROV1 ovarian, in the experiment on SK-MEL-5 melanoma and with HOP-92 NSCLC was over 100 µM in each case.
As for `FC(F)(F)c1ccc(N=NN2CCCC2)cc1`, the TGI with 786-0 renal, in the experiment on EKVX NSCLC, in the experiment with SK-MEL-28 melanoma, in the experiment with HCT-15 colon, with SK-OV-3 ovarian and in the experiment on K-562 leukemia was over 100 µM each time. The TGI with COLO 205 colon, with HS 578T breast, in the experiment with IGROV1 ovarian, in the experiment on SK-MEL-5 melanoma and with HOP-92 NSCLC was over 100 µM in each case.
Take `CC(=O)Oc1ccc(C2SCc3nc4ccccc4n32)cc1` (stereo unspecified): the TGI with 786-0 renal is over 100 µM; with EKVX NSCLC, over 100 µM; with SK-MEL-28 melanoma, over 100 µM; in the experiment on HCT-15 colon, over 100 µM; with SK-OV-3 ovarian it was 95.3 µM; in the experiment with K-562 leukemia, over 100 µM. Besides, the TGI is 56.3 µM in the experiment with COLO 205 colon; over 100 µM in the experiment on HS 578T breast; over 100 µM with IGROV1 ovarian; over 100 µM in the experiment on SK-MEL-5 melanoma; over 100 µM with HOP-92 NSCLC.
As to `N#C[C@H](c1nc2ccccc2[nH]1)c1nc2ccccc2nc1Cl`, the TGI in the experiment on 786-0 renal is over 100 µM; in the experiment on EKVX NSCLC, 30 µM; with SK-MEL-28 melanoma, 49 µM; with HCT-15 colon it was over 39.9 µM; in the experiment on SK-OV-3 ovarian it was over 100 µM; in the experiment on K-562 leukemia, over 100 µM. Also, the TGI with COLO 205 colon was 40 µM; with HS 578T breast it was over 100 µM; with IGROV1 ovarian it was 30.2 µM; with SK-MEL-5 melanoma it was 36 µM; in the experiment on HOP-92 NSCLC, over 75.6 µM.
As to `COc1cc(CNC(=O)CCCCCCCCCCSC#N)ccc1O`, the TGI with 786-0 renal is 41.5 µM; in the experiment on EKVX NSCLC it was 54.6 µM; with SK-MEL-28 melanoma it was 21.1 µM; in the experiment on HCT-15 colon, 23 µM; in the experiment on SK-OV-3 ovarian, 25.8 µM; in the experiment with K-562 leukemia, 88.5 µM. The TGI with COLO 205 colon turned out to be 94.5 µM; in the experiment with HS 578T breast, 40.9 µM; in the experiment with IGROV1 ovarian, 22.9 µM; with SK-MEL-5 melanoma, 19.4 µM; in the experiment with HOP-92 NSCLC, 34.8 µM.
Take `O=C(O)COc1cccc2ccccc(=O)c12`: the TGI with 786-0 renal, in the experiment with EKVX NSCLC, with SK-MEL-28 melanoma, with HCT-15 colon, in the experiment on SK-OV-3 ovarian and in the experiment on K-562 leukemia was over 100 µM each time. Further, the TGI in the experiment on COLO 205 colon, with HS 578T breast, in the experiment with IGROV1 ovarian, in the experiment with SK-MEL-5 melanoma and in the experiment with HOP-92 NSCLC was over 100 µM throughout.
Regarding `COC(=O)CC(c1ccccc1)C(C#N)(OP1(=O)OC(c2ccccc2)C(C)N1C)c1ccccc1` (stereo unspecified), the TGI with 786-0 renal, in the experiment with EKVX NSCLC, in the experiment on SK-MEL-28 melanoma, with HCT-15 colon, in the experiment on SK-OV-3 ovarian and in the experiment with K-562 leukemia was over 100 µM throughout. The TGI with COLO 205 colon was 44.6 µM; with HS 578T breast it was over 100 µM; in the experiment on IGROV1 ovarian, over 100 µM; with SK-MEL-5 melanoma it was 39.8 µM; in the experiment with HOP-92 NSCLC, over 100 µM.
For the molecule `[B]C(=O)NC(CC(C)C)C(=O)NC1c2ccsc2C(=O)C1O` (stereo unspecified) (tested in a mixture with another compound), the TGI in the experiment with 786-0 renal, in the experiment on EKVX NSCLC, with SK-MEL-28 melanoma, in the experiment on HCT-15 colon, in the experiment with SK-OV-3 ovarian and with K-562 leukemia was over 100 µM in each case. Further, the TGI in the experiment with COLO 205 colon, in the experiment on HS 578T breast, in the experiment on IGROV1 ovarian, with SK-MEL-5 melanoma and in the experiment on HOP-92 NSCLC was over 100 µM in each case. Further, the GI50 in the experiment with HOP-92 NSCLC was 44.6 µM and > 100 µM.
Consider `Cc1nc2ccccc2n1Cc1ccc(NC(=S)NC2CCCCC2)cc1`, for which the TGI is over 100 µM with 786-0 renal; over 92.9 µM in the experiment with EKVX NSCLC; over 100 µM with SK-MEL-28 melanoma; over 100 µM in the experiment on HCT-15 colon; over 100 µM in the experiment with SK-OV-3 ovarian; over 100 µM with K-562 leukemia. In addition, the TGI with COLO 205 colon was over 100 µM; with HS 578T breast, over 100 µM; with IGROV1 ovarian it was over 100 µM; in the experiment on SK-MEL-5 melanoma, over 51.4 µM; with HOP-92 NSCLC it was over 100 µM.
On to `COc1ccc(/C=C2\NC(=S)N(CN3CCOCC3)C2=O)cc1`, for which the TGI in the experiment with 786-0 renal, in the experiment on EKVX NSCLC, in the experiment with SK-MEL-28 melanoma, in the experiment on HCT-15 colon, in the experiment with SK-OV-3 ovarian and in the experiment with K-562 leukemia was over 100 µM each time. In addition, the TGI in the experiment with COLO 205 colon, with HS 578T breast, with IGROV1 ovarian, in the experiment with SK-MEL-5 melanoma and in the experiment on HOP-92 NSCLC was over 100 µM throughout.
As for `CC(C)(C)OC(=O)/C=C/[C@@H](CCC(=O)/C=C/[C@H](/C=C\CCCC(=O)O)NC1(c2ccccc2)c2ccccc2-c2ccccc21)O[Si](C)(C)C(C)(C)C`, the TGI with 786-0 renal is 33.3 µM; in the experiment with EKVX NSCLC it was 45.9 µM; in the experiment on SK-MEL-28 melanoma, 69.6 µM; in the experiment on HCT-15 colon, 30.2 µM; in the experiment with SK-OV-3 ovarian, over 100 µM; in the experiment with K-562 leukemia, over 100 µM. The TGI in the experiment on COLO 205 colon amounted to 59 µM; in the experiment with HS 578T breast it was 77.9 µM; in the experiment with IGROV1 ovarian, 35.5 µM; with SK-MEL-5 melanoma it was 36.8 µM; with HOP-92 NSCLC, 16 µM.
For the molecule `FC1(F)SC2CCCCCCCCCCC2C1(F)F` (stereo unspecified), the TGI was over 100 µM in the experiment on 786-0 renal; over 100 µM in the experiment on EKVX NSCLC; 71 µM with SK-MEL-28 melanoma; over 100 µM in the experiment on HCT-15 colon; over 100 µM with SK-OV-3 ovarian; 35.3 µM in the experiment with K-562 leukemia. Further, the TGI is 34.7 µM in the experiment on COLO 205 colon; over 100 µM in the experiment on HS 578T breast; over 100 µM in the experiment with IGROV1 ovarian; over 100 µM in the experiment with SK-MEL-5 melanoma; 51.6 µM in the experiment with HOP-92 NSCLC.
Regarding `CCN(CC)CCCNc1c2cc(OC)ccc2nc2cccc([N+](=O)[O-])c12`, the TGI with 786-0 renal was determined as 0.464 µM; in the experiment on EKVX NSCLC it was 0.446 µM; in the experiment with SK-MEL-28 melanoma it was 0.534 µM; with HCT-15 colon, 0.314 µM; in the experiment on SK-OV-3 ovarian, 0.789 µM; in the experiment with K-562 leukemia, 0.104 µM. For the same molecule, the TGI in the experiment on COLO 205 colon is 0.102 µM; with HS 578T breast it was 0.448 µM; in the experiment on IGROV1 ovarian, 0.387 µM; with SK-MEL-5 melanoma, 0.238 µM; in the experiment on HOP-92 NSCLC, 0.239 µM.
In the case of `NCCCCNCCCNC(=O)c1csc(-c2nc(CCN)sc2Cl)n1`, the TGI in the experiment on 786-0 renal, with EKVX NSCLC, in the experiment on SK-MEL-28 melanoma, in the experiment with HCT-15 colon, with SK-OV-3 ovarian and with K-562 leukemia was over 100 µM each time. Further, the TGI was over 100 µM with COLO 205 colon; over 100 µM in the experiment with HS 578T breast; over 100 µM in the experiment with IGROV1 ovarian; over 100 µM with SK-MEL-5 melanoma; 79.5 µM in the experiment on HOP-92 NSCLC.

The values above are taken from PubChem BioAssay (NCI).
